The supplement of paper PMC10307832

Columns and labels:
Test in all cases: relative viability (nuclei count vs DMSO), 5 days (fraction); higher = more cells survive
TPCA-1 + Luminespib = compound: C1=CC(=CC=C1C2=CC(=C(S2)NC(=O)N)C(=O)N)F [TPCA-1] + CCNC(=O)c1noc(-c2cc(C(C)C)c(O)cc2O)c1-c1ccc(CN2CCOCC2)cc1 [Luminespib] (partner 0.01 µM)
Method in brief: (§1)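 Nuclei were stained with Hoechst during a one-step fixation (final 0.05% Triton X-100, 1% formaldehyde, 1 ug/ml Hoechst) carried out 5 days after dosing, then counted on 4× images. The cells, lung cancer lines in 1536-well plates, had been dosed by pin tool the day after seeding with one drug alone or a fixed anchor-drug dose plus five library-drug doses (not always all listed) in √10 steps. Relative viability is the nuclei count in treated wells divided by that in vehicle wells, and each value is the median of duplicate plates.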

TPCA-1 + Pictilisib = compound: C1=CC(=CC=C1C2=CC(=C(S2)NC(=O)N)C(=O)N)F [TPCA-1] + CS(=O)(=O)N1CCN(Cc2cc3nc(-c4cccc5[nH]ncc45)nc(N4CCOCC4)c3s2)CC1 [Pictilisib] (partner 1 µM)
Method in brief: as §1

[1] = compound: C[C@]12O[C@H](C[C@]1(O)CO)n1c3ccccc3c3c4c(c5c6ccccc6n2c5c31)CNC4=O [Lestaurtinib] + CC(=O)Nc1cccc(-n2c(=O)n(C3CC3)c(=O)c3c(Nc4ccc(I)cc4F)n(C)c(=O)c(C)c32)c1 [Trametinib] (partner 0.02 µM)
Method in brief: as §1

[2] = compound: C[C@]12O[C@H](C[C@]1(O)CO)n1c3ccccc3c3c4c(c5c6ccccc6n2c5c31)CNC4=O [Lestaurtinib] + CCNC(=O)c1noc(-c2cc(C(C)C)c(O)cc2O)c1-c1ccc(CN2CCOCC2)cc1 [Luminespib] (partner 0.01 µM)
Method in brief: as §1

In the case of UMC-11, the relative viability (TPCA-1 + Luminespib; first compound 0.04 µM) is reported as 1.18, the relative viability (TPCA-1 + Luminespib; first compound 0.1265 µM) is reported as 0.914 and the relative viability (TPCA-1 + Luminespib; first compound 0.4 µM) is reported as 1.09. For the same cell line, the relative viability (TPCA-1 + Luminespib; first compound 1.265 µM) was 0.957, the relative viability (TPCA-1 + Luminespib; first compound 4 µM) was 0.684 and the relative viability (TPCA-1 + Pictilisib; first compound 0.04 µM) was 0.781. The relative viability (TPCA-1 + Pictilisib; first compound 0.1265 µM) was 0.685, the relative viability (TPCA-1 + Pictilisib; first compound 0.4 µM) was 0.881 and the relative viability (TPCA-1 + Pictilisib; first compound 1.265 µM) was 0.735. The relative viability (TPCA-1 + Pictilisib; first compound 4 µM) was 0.127, the relative viability ([1]; first compound 0.005 µM) was 0.746 and the relative viability ([1]; first compound 0.01581 µM) was 0.6. For the same cell line, the relative viability ([1]; first compound 0.05 µM) was 0.601, the relative viability ([1]; first compound 0.1581 µM) was 0.311 and the relative viability ([1]; first compound 0.5 µM) was 0.155. For the same cell line, the relative viability ([2]; first compound 0.005 µM) was 0.936, the relative viability ([2]; first compound 0.01581 µM) was 0.992 and the relative viability ([2]; first compound 0.05 µM) was 0.675. For the same cell line, the relative viability ([2]; first compound 0.1581 µM) was 0.286 and the relative viability ([2]; first compound 0.5 µM) was 0.164.
